“And” between values parts separate entries of the source, which are not always exact repeats. Equal entries are not always repeated.
Details: Fluid (supercritical or subcritical phases), Coaxial cylinder method

CCCCCC [hexane]
thermal conductivity
Details | 511.79 K | 513.09 K
2634 kPa | – | 0.0455 W/m/K
2645 kPa | – | 0.04562 W/m/K
2653 kPa | – | 0.04575 W/m/K
2654 kPa | – | 0.04575 W/m/K
2655 kPa | – | 0.04575 W/m/K
2661 kPa | – | 0.04587 W/m/K
2722 kPa | – | 0.04549 W/m/K
2740 kPa | – | 0.04678 W/m/K
2760 kPa | – | 0.04705 W/m/K
2763 kPa | – | 0.04704 W/m/K
2839 kPa | – | 0.04831 W/m/K
2849 kPa | – | 0.04859 W/m/K
2879 kPa | – | 0.04916 W/m/K
2894 kPa | – | 0.04931 W/m/K
2909 kPa | – | 0.0496 W/m/K
2931 kPa | – | 0.05008 W/m/K
2953 kPa | – | 0.05053 W/m/K
2983 kPa | – | 0.05146 W/m/K
3010 kPa | – | 0.05237 W/m/K
3034 kPa | – | 0.05319 W/m/K
3054 kPa | – | 0.05386 W/m/K
3098 kPa | – | 0.05597 W/m/K
3114 kPa | – | 0.05684 W/m/K
3152 kPa | – | 0.05939 W/m/K
3163 kPa | – | 0.06043 W/m/K
3169 kPa | – | 0.06085 W/m/K
3176 kPa | – | 0.06151 W/m/K
3180 kPa | – | 0.06217 W/m/K
3184 kPa | – | 0.06262 W/m/K
3186 kPa | – | 0.06285 W/m/K
3193 kPa | – | 0.06308 W/m/K
3195 kPa | – | 0.06308 W/m/K
3200 kPa | – | 0.06331 W/m/K
3205 kPa | – | 0.06425 W/m/K
3207 kPa | – | 0.06497 W/m/K
3212 kPa | – | 0.06596 W/m/K
3216 kPa | – | 0.06647 W/m/K
3231 kPa | – | 0.06898 W/m/K
3232 kPa | – | 0.06917 W/m/K
3234 kPa | – | 0.06942 W/m/K
3235 kPa | – | 0.06951 W/m/K
3236 kPa | – | 0.06967 W/m/K
3237 kPa | – | 0.06987 W/m/K
3238 kPa | – | 0.07001 W/m/K
3240 kPa | – | 0.07024 W/m/K
3242 kPa | – | 0.07052 W/m/K
3243 kPa | – | 0.07067 W/m/K
3244 kPa | – | 0.07081 W/m/K
3246 kPa | – | 0.0711 W/m/K
3247 kPa | – | 0.07125 W/m/K
3248 kPa | – | 0.07133 W/m/K
3249 kPa | – | 0.07154 W/m/K
3251 kPa | – | 0.07169 W/m/K
3252 kPa | – | 0.07184 W/m/K
3253 kPa | – | 0.07198 W/m/K
3254 kPa | – | 0.07213 W/m/K
3255 kPa | – | 0.07228 W/m/K
3256 kPa | – | 0.07243 W/m/K
3257 kPa | – | 0.07258 W/m/K
3258 kPa | – | 0.07265 W/m/K
3260 kPa | – | 0.07284 W/m/K
3261 kPa | – | 0.07295 W/m/K and 0.073 W/m/K
3262 kPa | – | 0.07311 W/m/K
3263 kPa | – | 0.07319 W/m/K
3265 kPa | – | 0.07338 W/m/K
3266 kPa | – | 0.07346 W/m/K
3267 kPa | – | 0.07354 W/m/K
3274 kPa | – | 0.07412 W/m/K
3277 kPa | – | 0.07428 W/m/K
3279 kPa | – | 0.07428 W/m/K
3280 kPa | – | 0.07438 W/m/K
3282 kPa | – | 0.07445 W/m/K
3284 kPa | – | 0.07451 W/m/K
3287 kPa | – | 0.07452 W/m/K
3288 kPa | – | 0.07459 W/m/K
3290 kPa | – | 0.07463 W/m/K
3292 kPa | – | 0.07463 W/m/K
3295 kPa | – | 0.07469 W/m/K
3298 kPa | – | 0.07463 W/m/K
3303 kPa | – | 0.07463 W/m/K
3306 kPa | – | 0.07437 W/m/K
3310 kPa | – | 0.07332 W/m/K
3312 kPa | – | 0.07332 W/m/K
3313 kPa | – | 0.07228 W/m/K
3318 kPa | – | 0.07228 W/m/K
3319 kPa | – | 0.07228 W/m/K
3322 kPa | – | 0.07228 W/m/K
3326 kPa | – | 0.07228 W/m/K
3330 kPa | – | 0.07228 W/m/K
3331 kPa | – | 0.07228 W/m/K
3332 kPa | – | 0.07228 W/m/K
3334 kPa | – | 0.07228 W/m/K
3336 kPa | – | 0.07228 W/m/K
3340 kPa | – | 0.07228 W/m/K
3343 kPa | – | 0.07197 W/m/K
3345 kPa | – | 0.07087 W/m/K
3346 kPa | – | 0.07087 W/m/K
3347 kPa | – | 0.07087 W/m/K
3350 kPa | – | 0.07087 W/m/K
3360 kPa | – | 0.07087 W/m/K
3370 kPa | – | 0.07087 W/m/K
3380 kPa | – | 0.07087 W/m/K
3390 kPa | – | 0.07087 W/m/K
3400 kPa | – | 0.06942 W/m/K
3420 kPa | – | 0.06942 W/m/K
3430 kPa | – | 0.06942 W/m/K
3450 kPa | – | 0.06824 W/m/K and 0.06843 W/m/K
3500 kPa | – | 0.06824 W/m/K
3600 kPa | – | 0.06824 W/m/K
3700 kPa | – | 0.06824 W/m/K
3800 kPa | – | 0.06824 W/m/K
3900 kPa | – | 0.06824 W/m/K
4000 kPa | – | 0.07056 W/m/K
4100 kPa | – | 0.0708 W/m/K and 0.07056 W/m/K
4180 kPa | 0.07039 W/m/K | –
4190 kPa | 0.07026 W/m/K | –
4200 kPa | 0.07026 W/m/K | 0.07086 W/m/K
4300 kPa | – | 0.07086 W/m/K
4400 kPa | 0.07099 W/m/K | –
4600 kPa | 0.07159 W/m/K | 0.07116 W/m/K
4700 kPa | – | 0.07125 W/m/K
4800 kPa | 0.07179 W/m/K | 0.07144 W/m/K
4900 kPa | – | 0.07165 W/m/K
5000 kPa | – | 0.07187 W/m/K
5100 kPa | – | 0.07209 W/m/K
5200 kPa | – | 0.07225 W/m/K
5300 kPa | – | 0.0725 W/m/K
5400 kPa | 0.07303 W/m/K | 0.07269 W/m/K
5500 kPa | – | 0.07288 W/m/K
5600 kPa | – | 0.07304 W/m/K
5700 kPa | – | 0.07323 W/m/K
5800 kPa | – | 0.07339 W/m/K
5900 kPa | – | 0.07359 W/m/K
6000 kPa | 0.074 W/m/K | 0.07375 W/m/K
6100 kPa | – | 0.07391 W/m/K
6200 kPa | – | 0.07408 W/m/K
6300 kPa | – | 0.07424 W/m/K
6400 kPa | – | 0.07438 W/m/K
6500 kPa | – | 0.07454 W/m/K
6600 kPa | – | 0.07471 W/m/K
6700 kPa | – | 0.07488 W/m/K
6800 kPa | – | 0.07501 W/m/K
6900 kPa | – | 0.07515 W/m/K
7000 kPa | 0.07567 W/m/K | 0.07528 W/m/K
7100 kPa | – | 0.07542 W/m/K
7150 kPa | – | 0.07549 W/m/K
7200 kPa | – | 0.07556 W/m/K
7211 kPa | – | 0.07556 W/m/K
7292 kPa | – | 0.07569 W/m/K
7496 kPa | – | 0.07597 W/m/K
7501 kPa | – | 0.07597 W/m/K
7517 kPa | – | 0.07597 W/m/K
7533 kPa | – | 0.07599 W/m/K
7800 kPa | – | 0.07638 W/m/K
8000 kPa | 0.07705 W/m/K | –
8100 kPa | – | 0.07676 W/m/K
8200 kPa | – | 0.07687 W/m/K
9000 kPa | 0.07812 W/m/K | –
10000 kPa | 0.07922 W/m/K | –

— the NIST ThermoML archive (doi:10.1016/j.fluid.2018.10.006)
